Laboratory results published in patent publication US20220380368A1, “SPIROCYCLIC ANDROGEN RECEPTOR PROTEIN DEGRADERS” (THE REGENTS OF THE UNIVERSITY OF MICHIGAN, priority 2019, published 2022).
Like-named read-outs stand apart in the source and are kept apart here.

Legend:
[1] = Mouse PK studies after oral and IV dosing; type: in vivo; settings: for F: PO 3 mg/kg vs IV 1 mg/kg; for AUC(0-t) / clearance / half-life / Vd / Cmax / Tmax: in vivo; for clearance: read-out: IV Cl (converted); for Vd: read-out: IV VSS
Method: The pharmacokinetics of representative Compounds of the Disclosure were determined after oral and IV dosing at the concentrations indicated in mouse (Table 7). […] The vehicles used in these studies are either (i) 10% PEG400+90% PBS (adjusted to pH to 8.0 by 0.5 N NaOH); or (ii) 100% PEG200.

[2] = molecular target: T1, AR protein (Homo sapiens, UniProt P10275); experiment: Western blotting analysis of AR protein levels in VCaP cells, band quantification, DC50/DC90; type: cell-based; settings: VCaP cells, Table 6; read-out: VCaP DC50
T1 construct: endogenous in cells; host or cells: VCaP
T1 sequence (P10275 1-920): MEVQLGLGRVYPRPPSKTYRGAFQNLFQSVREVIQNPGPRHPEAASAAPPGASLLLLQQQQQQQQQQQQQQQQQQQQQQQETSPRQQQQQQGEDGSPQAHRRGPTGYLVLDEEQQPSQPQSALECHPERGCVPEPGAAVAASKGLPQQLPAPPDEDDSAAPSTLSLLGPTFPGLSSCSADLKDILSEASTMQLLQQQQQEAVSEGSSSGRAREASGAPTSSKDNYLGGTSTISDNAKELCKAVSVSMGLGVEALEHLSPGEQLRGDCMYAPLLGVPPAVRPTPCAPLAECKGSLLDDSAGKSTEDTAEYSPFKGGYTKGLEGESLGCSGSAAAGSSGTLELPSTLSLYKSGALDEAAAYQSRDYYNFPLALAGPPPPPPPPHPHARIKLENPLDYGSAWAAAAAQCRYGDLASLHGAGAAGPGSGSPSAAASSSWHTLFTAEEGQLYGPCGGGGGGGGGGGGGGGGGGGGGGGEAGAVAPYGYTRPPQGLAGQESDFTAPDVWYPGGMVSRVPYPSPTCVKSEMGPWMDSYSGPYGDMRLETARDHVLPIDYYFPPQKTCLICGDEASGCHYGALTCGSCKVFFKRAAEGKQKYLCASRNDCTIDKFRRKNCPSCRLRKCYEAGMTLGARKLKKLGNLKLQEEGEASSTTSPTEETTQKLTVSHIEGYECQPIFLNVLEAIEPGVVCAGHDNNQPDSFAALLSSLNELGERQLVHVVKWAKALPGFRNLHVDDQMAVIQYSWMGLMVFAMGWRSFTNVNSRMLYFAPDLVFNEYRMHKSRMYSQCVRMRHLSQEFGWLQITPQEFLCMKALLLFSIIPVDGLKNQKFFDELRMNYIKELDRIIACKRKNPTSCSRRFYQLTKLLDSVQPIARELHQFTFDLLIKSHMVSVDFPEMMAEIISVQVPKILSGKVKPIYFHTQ
In short: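 VCaP cells treated with compounds, lysed in RIPA and probed for AR by Western blot with GAPDH loading control. Band intensities normalised to GAPDH; DC50 from curve fit, DC90 calculated from DC50 and Hill slope via four-parameter equation.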

[3] = iv, 1 mg/kg, IV, dose 1 mg/kg, read-out: IV AUC(0 − t)
[4] = iv, 1 mg/kg, IV, dose 1 mg/kg, read-out: IV T1/2 (converted)
[5] = po, 3 mg/kg, PO, dose 3 mg/kg, read-out: PO AUC(0 − t)
[6] = po, 3 mg/kg, PO, dose 3 mg/kg, read-out: PO T1/2 (converted)

Structure (SMILES)	F [1] [%]	AUC(0-t) [1, 3] [ng·h/mL]	clearance ([1]; iv, 1 mg/kg, IV, dose 1 mg/kg) [mL/min/kg]	half-life [1, 4] [h]	Vd ([1]; iv, 1 mg/kg, IV, dose 1 mg/kg) [L/kg]	Cmax ([1]; po, 3 mg/kg) [ng/mL]	Tmax ([1]; po, 3 mg/kg) [h]	AUC(0-t) [1, 5] [ng·h/mL]	half-life [1, 6] [h]	DC50 [2] [nM]
C[C@H]1CC2(CCN(c3cnc(C(=O)N4CCC(N5CCN(c6ccc7c(c6)C(=O)N(C6CCC(=O)NC6=O)C7=O)CC5)CC4)cn3)CC2)CN1c1ccc(C#N)c(Cl)c1 (stereo partly drawn) [Cpd. No. 497, 2-chloro-4-((3S)-8-(5-(4-(4-(2-(2,6-dioxopiperidin-3-yl)-1,3-dioxoisoindolin-5-yl)piperazin-1-yl)piperidine-1-carbonyl)pyrazin-2-yl)-3-methyl-2,8-diazaspiro[4.5]decan-2-yl)benzonitrile]	30	849	18.8	2.7	2	336	0.5	760	2	< 1
C[C@H]1CC2(CCN(c3ccc(C(=O)N4CCN(C5CCN(c6ccc7c(c6)C(=O)N(C6CCC(=O)NC6=O)C7=O)CC5)CC4)cc3F)CC2)CN1c1ccc(C#N)c(Cl)c1 (stereo partly drawn) [Cpd. No. 521, 2-chloro-4-((3S)-8-(4-(4-(1-(2-(2,6-dioxopiperidin-3-yl)-1,3-dioxoisoindolin-5-yl)piperidin-4-yl)piperazine-1-carbonyl)-2-fluorophenyl)-3-methyl-2,8-diazaspiro[4.5]decan-2-yl)benzonitrile]	30	2990	5	8.2	3.1	344	1.7	2730	7	< 1
C[C@H]1CC2(CCN(c3cnc(C(=O)N4CCC(N5CCN(c6cc7c(cc6F)C(=O)N(C6CCC(=O)NC6=O)C7=O)CC5)CC4)cn3)CC2)CN1c1ccc(C#N)c(Cl)c1 (stereo partly drawn) [Cpd. No. 498, 2-chloro-4-((3S)-8-(5-(4-(4-(2-(2,6-dioxopiperidin-3-yl)-6-fluoro-1,3-dioxoisoindolin-5-yl)piperazin-1-yl)piperidine-1-carbonyl)pyrazin-2-yl)-3-methyl-2,8-diazaspiro[4.5]decan-2-yl)benzonitrile]	45	419	36.8	1.9	3.22	191	0.8	572	2.3	1 to 10
C[C@H]1CC2(CCN(c3ccc(C(=O)N4CCN(CC5CN(c6ccc7c(c6)C(=O)N(C6CCC(=O)NC6=O)C7=O)C5)CC4)nn3)CC2)CN1c1ccc(C#N)c(Cl)c1 (stereo partly drawn) [Cpd. No. 484, 2-chloro-4-((3S)-8-(6-(4-((1-(2-(2,6-dioxopiperidin-3-yl)-1,3-dioxoisoindolin-5-yl)azetidin-3-yl)methyl)piperazine-1-carbonyl)pyridazin-3-yl)-3-methyl-2,8-diazaspiro[4.5]decan-2-yl)benzonitrile]	46	7770	2	6.1	0.62	2380	1.3	10600	4.5	1 to 10
C[C@H]1CC2(CCN(c3cnc(C(=O)N4CCN(CC5CCN(c6ccc7c(c6)C(=O)N(C6CCC(=O)NC6=O)C7=O)CC5)CC4)cn3)CC2)CN1c1ccc(C#N)c(Cl)c1 (stereo partly drawn) [Cpd. No. 494, 2-chloro-4-((3S)-8-(5-(4-((1-(2-(2,6-dioxopiperidin-3-yl)-1,3-dioxoisoindolin-5-yl)piperidin-4-yl)methyl)piperazine-1-carbonyl)pyrazin-2-yl)-3-methyl-2,8-diazaspiro[4.5]decan-2-yl)benzonitrile]	9	180	87.3	5.4	16.9	36	0.5	49	2.4	1 to 10
C[C@H]1CC2(CCN(c3cnc(C(=O)N4CCC(CN5CCN(c6ccc7c(c6)C(=O)N(C6CCC(=O)NC6=O)C7=O)CC5)CC4)cn3)CC2)CN1c1ccc(C#N)c(Cl)c1 (stereo partly drawn) [Cpd. No. 492, 2-chloro-4-((3S)-8-(5-(4-((4-(2-(2,6-dioxopiperidin-3-yl)-1,3-dioxoisoindolin-5-yl)piperazin-1-yl)methyl)piperidine-1-carbonyl)pyrazin-2-yl)-3-methyl-2,8-diazaspiro[4.5]decan-2-yl)benzonitrile]	15	277	54.5	3.3	7.71	59	0.5	123	2.1	1 to 10
C[C@H]1CC2(CCN(c3ccc(C(=O)N4CCN(CC5CN(c6ccc7c(c6)C(=O)N(C6CCC(=O)NC6=O)C7=O)C5)CC4)cc3F)CC2)CN1c1ccc(C#N)c(Cl)c1 (stereo partly drawn) [Cpd. No. 528, 2-chloro-4-((3S)-8-(4-(4-((1-(2-(2,6-dioxopiperidin-3-yl)-1,3-dioxoisoindolin-5-yl)azetidin-3-yl)methyl)piperazine-1-carbonyl)-2-fluorophenyl)-3-methyl-2,8-diazaspiro[4.5]decan-2-yl)benzonitrile]	33	1710	8.33	8.9	5.7	149	1.7	1680	8.8	< 1
C[C@H]1CC2(CCN(c3ccc(C(=O)N4CCC(N5CCN(c6ccc7c(c6)C(=O)N(C6CCC(=O)NC6=O)C7=O)CC5)CC4)nn3)CC2)CN1c1ccc(C#N)c(Cl)c1 (stereo partly drawn) [Cpd. No. 499, 2-chloro-4-((3S)-8-(6-(4-(4-(2-(2,6-dioxopiperidin-3-yl)-1,3-dioxoisoindolin-5-yl)piperazin-1-yl)piperidine-1-carbonyl)pyridazin-3-yl)-3-methyl-2,8-diazaspiro[4.5]decan-2-yl)benzonitrile]	29	1920	8.17	3.6	1.73	404	1.3	1670	2	< 1
C[C@H]1CC2(CCN(c3ccc(C(=O)N4CCC(N5CCN(c6cc7c(cc6F)C(=O)N(C6CCC(=O)NC6=O)C7=O)CC5)CC4)nn3)CC2)CN1c1ccc(C#N)c(Cl)c1 (stereo partly drawn) [Cpd. No. 500, 2-chloro-4-((3S)-8-(6-(4-(4-(2-(2,6-dioxopiperidin-3-yl)-6-fluoro-1,3-dioxoisoindolin-5-yl)piperazin-1-yl)piperidine-1-carbonyl)pyridazin-3-yl)-3-methyl-2,8-diazaspiro[4.5]decan-2-yl)benzonitrile]	60	1880	7.83	2.6	1.53	711	1.7	3750	2	1 to 10
C[C@H]1CC2(CCN(c3ccc(C(=O)N4CCN(CC5CCN(c6ccc7c(c6)C(=O)N(C6CCC(=O)NC6=O)C7=O)CC5)CC4)nn3)CC2)CN1c1ccc(C#N)c(Cl)c1 (stereo partly drawn) [Cpd. No. 491, 2-chloro-4-((3S)-8-(6-(4-((1-(2-(2,6-dioxopiperidin-3-yl)-1,3-dioxoisoindolin-5-yl)piperidin-4-yl)methyl)piperazine-1-carbonyl)pyridazin-3-yl)-3-methyl-2,8-diazaspiro[4.5]decan-2-yl)benzonitrile]	34	2640	6	7.7	2.09	789	1	2710	5.7	1 to 10
